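Growth conditions: 96-well plates. Treatment: test compound, 48 hours, 5 concentrations. Analysis: linear interpolation between bracketing concentrations; unreached endpoints set to highest concentration. The concentration for 50% growth inhibition is given as GI50.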 Activity calls are given as the source filed them. Cut-off read from the data, not from the text of the source: active = GI50 up to about 1.1 µM and inactive = higher.
Tests used:
Test in all cases: growth of human tumour cells (NCI), 48 h
HOP-62 = test system: HOP-62
HT-29 = test system: HT-29
Malme-3M = test system: Malme-3M
NCI-H226 = test system: NCI-H226
NCI-H460 = test system: NCI-H460
NCI/ADR-RES = test system: NCI/ADR-RES
OVCAR-3 = test system: OVCAR-3
RXF 393 = test system: RXF 393
SF-268 = test system: SF-268
SF-295 = test system: SF-295
SK-MEL-2 = test system: SK-MEL-2
SK-MEL-5 = test system: SK-MEL-5
SK-OV-3 = test system: SK-OV-3
ACHN = test system: ACHN
DU-145 = test system: DU-145
M14 = test system: M14
MDA-N = test system: MDA-N
PC-3 = test system: PC-3
TK-10 = test system: TK-10
SNB-78 = test system: SNB-78

| SMILES | GI50 (HOP-62) | GI50 (HT-29) | GI50 (Malme-3M) | GI50 (NCI-H226) | GI50 (NCI-H460) | GI50 (NCI/ADR-RES) | GI50 (OVCAR-3) | GI50 (RXF 393) | GI50 (SF-268) | GI50 (SF-295) | GI50 (SK-MEL-2) | GI50 (SK-MEL-5) | GI50 (SK-OV-3) | GI50 (ACHN) | GI50 (DU-145) | GI50 (M14) | GI50 (MDA-N) | GI50 (PC-3) | GI50 (TK-10) | GI50 (SNB-78) |
| --- | --- | --- | --- | --- | --- | --- | --- | --- | --- | --- | --- | --- | --- | --- | --- | --- | --- | --- | --- | --- |
| O=S(=O)(CCBr)CCBr | 0.506 µM (active) | 5.94 µM (inactive) | 3.17 µM (inactive) | 19.2 µM (inactive) | 12 µM (inactive) | 2.17 µM (inactive) | 3.67 µM (inactive) | 2.17 µM (inactive) | 3.99 µM (inactive) | 15.7 µM (inactive) | 11.3 µM (inactive) | 7.35 µM (inactive) | 19.3 µM (inactive) |  |  |  |  |  |  |  |
| CCOC(=O)c1csc(NC(=O)C(C)N2CCOCC2)n1 (stereo not given) | > 100 µM (inactive) | > 100 µM (inactive) | > 100 µM (inactive) |  | > 100 µM (inactive) | > 100 µM (inactive) | > 100 µM (inactive) | > 100 µM (inactive) |  | > 100 µM (inactive) | > 100 µM (inactive) | > 100 µM (inactive) | > 100 µM (inactive) | > 100 µM (inactive) | > 100 µM (inactive) | > 100 µM (inactive) | > 100 µM (inactive) | > 100 µM (inactive) | > 100 µM (inactive) |  |
| N#CCCN(CCC#N)c1ccc(/C=C2\N=C(c3cc([N+](=O)[O-])ccc3Cl)N(S(=O)(=O)c3ccccc3)C2=O)cc1 | > 100 µM (inactive) |  | > 100 µM (inactive) | > 100 µM (inactive) |  |  | > 100 µM (inactive) | > 100 µM (inactive) | > 100 µM (inactive) | > 100 µM (inactive) | > 100 µM (inactive) | > 100 µM (inactive) | > 100 µM (inactive) | > 100 µM (inactive) |  |  |  |  | > 100 µM (inactive) | > 100 µM (inactive) |
| CC(=O)C(=O)NC1/C=C(C)\C=C/C(O)C/C=C(C)\C=C/C(O)CC2OC(=O)C1(C)C(=O)C2C (stereo not given) | > 100 µM (inactive) | > 100 µM (inactive) | > 100 µM (inactive) | > 100 µM (inactive) | > 100 µM (inactive) | > 100 µM (inactive) | > 100 µM (inactive) | > 100 µM (inactive) | > 100 µM (inactive) | > 100 µM (inactive) | > 100 µM (inactive) | > 100 µM (inactive) | > 100 µM (inactive) |  |  |  |  |  |  | > 100 µM (inactive) |
| CCN(CC)CCCOC(=O)/C=C/c1c(C)[nH]c(=O)[nH]c1=O | > 625 µM (inactive) | > 394 µM (inactive) | > 625 µM (inactive) | > 625 µM (inactive) | > 625 µM (inactive) | > 625 µM (inactive) | > 625 µM (inactive) | > 99.1 µM (inactive) | > 625 µM (inactive) | 525 µM (inactive) | > 394 µM (inactive) | > 625 µM (inactive) | > 625 µM (inactive) |  |  |  |  |  |  | 542 µM (inactive) |
| CSc1nc(NC2OC(CO)C(O)C(O)C2O)c(N)c(=O)n1C (stereo not given) | > 100 µM (inactive) | > 100 µM (inactive) | > 100 µM (inactive) | > 100 µM (inactive) | > 100 µM (inactive) | > 100 µM (inactive) | > 100 µM (inactive) | > 100 µM (inactive) | > 100 µM (inactive) | > 100 µM (inactive) | > 100 µM (inactive) | > 100 µM (inactive) | > 100 µM (inactive) |  |  |  |  |  |  | > 100 µM (inactive) |
| CO/N=C1/c2sccc2[C@H](NC(=O)C(Cc2ccccc2)NC(=O)OC(C)(C)C)[C@@H]1O (stereo not given in full) | > 100 µM (inactive) | > 100 µM (inactive) | > 100 µM (inactive) | > 100 µM (inactive) | > 100 µM (inactive) | > 100 µM (inactive) | > 100 µM (inactive) | > 100 µM (inactive) | > 100 µM (inactive) | > 100 µM (inactive) | > 100 µM (inactive) | > 100 µM (inactive) | > 100 µM (inactive) |  | > 100 µM (inactive) | > 100 µM (inactive) | > 100 µM (inactive) | > 100 µM (inactive) | > 100 µM (inactive) |  |
| CCC1CN2CCc3cc(OC)c(OC)cc3C2CC1CC1c2cc(OC)c(OC)cc2CCN1C(=O)C(N)Cc1ccccc1.[O-][Cl+3]([O-])([O-])O (stereo not given) | 2.73 µM (inactive) | 0.486 µM (active) | 2.77 µM (inactive) |  | 0.538 µM (active) |  | 4.16 µM (inactive) | 1.65 µM (inactive) | 3.37 µM (inactive) | 2.05 µM (inactive) | 2.23 µM (inactive) | 2.12 µM (inactive) | 4.65 µM (inactive) | 2.88 µM (inactive) |  | 0.628 µM (active) |  |  | 2.75 µM (inactive) |  |
| CNC(=S)N/N=C(/C)CCC/C(C)=N/NC(=S)NC | > 100 µM (inactive) | 0.499 µM (active) | > 90.4 µM (inactive) | > 61.7 µM (inactive) | > 56.9 µM (inactive) | > 100 µM (inactive) | 0.411 µM (active) |  | > 35.2 µM (inactive) | > 100 µM (inactive) | > 100 µM (inactive) | 16.4 µM (inactive) | > 100 µM (inactive) | > 80.7 µM (inactive) | > 68.5 µM (inactive) | > 100 µM (inactive) | > 100 µM (inactive) | 3.71 µM (inactive) | > 100 µM (inactive) |  |
| C[n+]1ccc(Nc2ccc(NC(=O)c3ccc(Nc4cc[n+](C)c5ccc([N+](=O)[O-])cc45)cc3[N+](=O)[O-])cc2)cc1 | 59.8 µM (inactive) |  | 19.7 µM (inactive) | > 56.1 µM (inactive) | 25.7 µM (inactive) | > 85.7 µM (inactive) | 18.9 µM (inactive) |  | 40.6 µM (inactive) | 30.4 µM (inactive) | 48.8 µM (inactive) | 24.1 µM (inactive) | 60.3 µM (inactive) |  |  |  |  |  |  |  |
| COc1cc(O)c(Cc2ccccc2O)c(O)c1C(=O)CCc1ccccc1 [UVARETIN] | 2.47 µM (inactive) | 11.9 µM (inactive) | 4.89 µM (inactive) | 6.62 µM (inactive) | 4.49 µM (inactive) | 5.66 µM (inactive) | 4.58 µM (inactive) | 6.07 µM (inactive) | 7.01 µM (inactive) | 5.9 µM (inactive) | 4.71 µM (inactive) | 3.69 µM (inactive) | 6.15 µM (inactive) |  |  |  |  |  |  | 7.64 µM (inactive) |
